Measurements as given in US20260159520A1, “HETEROBIFUNCTIONAL COMPOUNDS AND METHODS OF TREATING DISEASE” (Halda Therapeutics OpCo, Inc., priority 2022, published 2026).

Columns and labels:
[1] = test system: T-Rex 293 cell line SC cells having increased expression of progesterone receptor isoform B protein; test: Cellular growth inhibition, T-Rex 293 SC cells with doxycycline (increased progesterone receptor isoform B expression); format: cell-based; conditions: with 10 ng/mL doxycycline (increased progesterone receptor isoform B), 72 hours, CellTiter-Glo 2.0
Protocol: (§1) The following types of cells were prepared for this experiment: (i) a T-Rex 293 cell line having increased expression of progesterone receptor isoform B protein due to exposure to doxycycline and (ii) a T-Rex 293 cell line lacking increased expression of progesterone receptor isoform B protein. Ability of the test compounds to inhibit proliferation of the foregoing cell types was evaluated according to the procedures set forth below.
(§2) The doxycycline-inducible progesterone receptor isoform B protein expressing cell line was established using the following protocol: T-Rex 293 cells were purchased from Invitrogen (Cat #R71007) and transfected using Lipofectamine 2000 with the wild-type progesterone receptor B protein sequence cloned into the pcDNA4/TO vector. Transfected cells were selected using 400 μg/mL Zeocin (Invitrogen Cat #R25001). Following selection, single clones were raised and maintained in Dulbecco's Modified Eagle Medium (DMEM) supplemented with 10% w/w Tetracycline-free fetal bovine serum (FBS) and 250 μg/mL Zeocin. Clones were analyzed for expression of progesterone receptor isoform B protein in the presence and absence of 10 ng/mL doxycycline (Sigma Cat #D9891), and a single doxycycline-inducible clone (hereinafter “SC”) was selected for use in downstream assays.
(§3) The SC cells were seeded on poly-D-lysine coated, black clear-bottom 384-well plates at 2500/well, in 25 μL Phenol Red Free Dulbecco's Modified Eagle Medium (DMEM) supplemented with 10% w/w charcoal-dextran treated fetal bovine serum (FBS) and 1% w/w pen-strep, with or without 10 ng/mL doxycycline. Pen-Strep is a commercially available mixture of penicillin G and streptomycin, which is used in mammalian cell culture media to prevent bacterial contamination. Phenol Red Free Dulbecco's Modified Eagle Medium (DMEM) supplemented with 10% w/w charcoal-dextran treated fetal bovine serum (FBS) and 1% w/w pen-strep, with or without 10 ng/mL doxycycline is herein referred to as Treatment Medium. Following seeding of cells in the plates, the plates were spun at 300×g for 30 seconds, then equilibrated to room temperature for 30 minutes, and then deposited in a humidified tissue culture incubator maintained at 37° C. with 5% CO2.
(§4) At 24 hours after seeding of the cells, dilutions of test compound were prepared in DMSO and dissolved in Treatment Medium, to achieve a final DMSO concentration of 0.5% w/w, thereby providing the Test Compound Solution. A 25 μL aliquot of the Test Compound Solution was added to cells in the well plates. An equal volume of a solution containing DMSO and Treatment Medium was used as a negative control. Following treatment of cells with Test Compound Solution or said equal volume of a solution containing DMSO and Treatment Medium, the plates were spun at 300×g for 30 seconds, and then left in an incubator for 72 hours.
(§5) At the end of the treatment duration, cell viability was quantified with CellTiter-Glo 2.0 reagent (Promega Cat #G9243). For this purpose, plates were equilibrated to room temperature for 30 minutes, and then 25 μL of CellTiter-Glo 2.0 reagent was added to cells in the plate wells. Plates were then agitated on a shaker for two minutes at 500 rpm and subsequently incubated at room temperature for 10 minutes. Following incubation, the plates were spun at 3000×g for 30 seconds, then sealed with an optical adhesive cover, and luminescence readings were measured with an EnVision Plate Reader (Perkin Elmer).
(§6) Data was normalized using zero luminescence for baseline. A four-parameter non-linear regression curve fit was applied to dose-response data in GraphPad Prism data analysis software to determine the half-maximal growth inhibitory concentration (GI50) for each test compound.

[2] = test system: T-Rex 293 cell line SC3 cells having increased expression of androgen receptor protein; test: Cellular growth inhibition, T-Rex 293 SC3 cells with doxycycline (increased androgen receptor expression); format: cell-based; conditions: with 10 ng/mL doxycycline (increased androgen receptor), 72 hours, CellTiter-Glo 2.0
Procedure, shortened: (§7)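 Doxycycline (10 ng/mL) was either included or omitted to toggle wild-type androgen receptor expression in SC3 cells, a T-Rex 293 clone, grown in stripped-serum, phenol red-free medium. After 72 hours with compound, viable cells were quantified by CellTiter-Glo 2.0.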

[3] = test system: T-Rex 293 cell line SC3 cells lacking increased expression of androgen receptor protein; test: Cellular growth inhibition, T-Rex 293 SC3 cells without doxycycline; format: cell-based; conditions: not exposed to doxycycline, 72 hours, CellTiter-Glo 2.0
Procedure, shortened: as §7

[4] = test system: T-Rex 293 cell line SC cells lacking increased expression of progesterone receptor isoform B protein; test: Cellular growth inhibition, T-Rex 293 SC cells without doxycycline; format: cell-based; conditions: not exposed to doxycycline, 72 hours, CellTiter-Glo 2.0
Protocol: as §1, §2, §3, §4, §5, §6

androgen receptor = biological target: T1, androgen receptor (Homo sapiens, UniProt P10275); test: Binding affinity to androgen receptor ([3H]methyltrienolone radioligand, cell cytosol); conditions: Table 6
T1 construct: endogenous in cells; host or cells: unnamed cells (cytosol fraction)
T1 sequence (P10275 1-920): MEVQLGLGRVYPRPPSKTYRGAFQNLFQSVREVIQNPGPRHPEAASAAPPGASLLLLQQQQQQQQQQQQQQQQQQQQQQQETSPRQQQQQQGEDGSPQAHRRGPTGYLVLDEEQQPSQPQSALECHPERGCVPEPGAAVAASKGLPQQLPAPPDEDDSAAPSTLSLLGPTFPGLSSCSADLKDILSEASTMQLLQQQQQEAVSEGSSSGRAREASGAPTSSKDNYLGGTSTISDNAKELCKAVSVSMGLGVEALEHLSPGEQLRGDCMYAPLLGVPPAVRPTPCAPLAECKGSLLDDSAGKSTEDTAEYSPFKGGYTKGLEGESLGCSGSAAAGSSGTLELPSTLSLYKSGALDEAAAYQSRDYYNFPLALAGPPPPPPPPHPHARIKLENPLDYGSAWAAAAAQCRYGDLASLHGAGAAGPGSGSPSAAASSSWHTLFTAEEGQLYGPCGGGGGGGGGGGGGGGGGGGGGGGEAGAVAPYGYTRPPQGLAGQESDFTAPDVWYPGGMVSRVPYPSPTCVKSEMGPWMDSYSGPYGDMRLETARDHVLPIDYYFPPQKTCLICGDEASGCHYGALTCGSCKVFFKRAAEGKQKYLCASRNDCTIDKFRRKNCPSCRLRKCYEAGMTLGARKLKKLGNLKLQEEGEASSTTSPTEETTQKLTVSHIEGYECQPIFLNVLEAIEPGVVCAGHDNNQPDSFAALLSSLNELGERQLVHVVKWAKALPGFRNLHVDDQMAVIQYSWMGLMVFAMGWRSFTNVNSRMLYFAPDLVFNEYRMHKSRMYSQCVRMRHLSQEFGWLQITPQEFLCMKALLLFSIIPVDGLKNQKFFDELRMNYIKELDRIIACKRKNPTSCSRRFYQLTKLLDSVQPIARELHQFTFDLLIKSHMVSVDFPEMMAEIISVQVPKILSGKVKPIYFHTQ
Protocol: Fractions of cell cytosol ([…]) were incubated for 24 hr at 4° C. with 1 nM [^3H]methyltrienolone in the absence or presence of the test compound in a buffer containing 25 mM Hepes-Tris (pH 7.4), 1 mM EDTA, 10 mM Na2MoO4, 2 mM DTT, 5 μM triamcinolone acetonide, and 10% glycerol. Nonspecific binding was determined in the presence of 1 μM testosterone. Following incubation, the samples were filtered rapidly under vacuum through glass fiber filters (GF/B, Packard) presoaked with 0.3% PEI and rinsed several times with ice-cold 50 mM Tris-HCl using a 96-sample cell harvester (Unifilter, Packard). The filters were dried then counted for radioactivity in a scintillation counter (Topcount, Packard) using a scintillation cocktail (Microscint 0, Packard). The results are expressed as a percent inhibition of the control radioligand specific binding. The standard reference compound is testosterone, which is tested in each experiment at several concentrations to obtain a competition curve from which its IC50 is calculated.

VCaP cells = test: Cellular growth inhibition assay for VCaP cells; format: cell-based; conditions: Homo sapiens, 72 hours, CellTiter-Glo 2.0
CDK9 = biological target: T2, CDK9 (Homo sapiens, UniProt P50750); test: KdELECT binding assay, CDK9; conditions: CDK9, Table 7
T2 construct: made in house; host or cells: E. coli BL21-derived host (T7 phage) or HEK-293 ('BEK-293' [sic])
T2 sequence (P50750 whole entry): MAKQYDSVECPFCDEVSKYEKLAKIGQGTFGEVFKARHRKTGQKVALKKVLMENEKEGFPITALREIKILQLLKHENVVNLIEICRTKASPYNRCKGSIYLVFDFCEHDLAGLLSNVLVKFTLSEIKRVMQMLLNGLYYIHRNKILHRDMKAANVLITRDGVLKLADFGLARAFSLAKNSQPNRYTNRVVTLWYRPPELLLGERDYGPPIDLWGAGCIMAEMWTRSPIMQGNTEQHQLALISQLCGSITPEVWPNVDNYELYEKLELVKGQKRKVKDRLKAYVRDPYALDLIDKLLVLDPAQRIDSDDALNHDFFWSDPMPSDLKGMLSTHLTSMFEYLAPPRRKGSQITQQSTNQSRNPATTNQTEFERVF
Protocol: Compounds were tested using a KdELECT. Kinase-tagged T7 phage strains were prepared in an E. coli host derived from the BL21 strain. E. coli were grown to log-phase and infected with T7 phage and incubated with shaking at 32° C. until lysis. The lysates were centrifuged and filtered to remove cell debris. The remaining kinases were produced in BEK-293 cells and subsequently tagged with DNA for qPCR detection. Streptavidin-coated magnetic beads were treated with biotinylated small molecule ligands for 30 minutes at room temperature to generate affinity resins for kinase assays. The liganded beads were blocked with excess biotin and washed with blocking buffer (SeaBlock (Pierce), 1% BSA, 0.05% Tween 20, 1 mM DTT) to remove unbound ligand and to reduce non-specific binding. Binding reactions were assembled by combining kinases, liganded affinity beads, and test compounds in 1× binding buffer (20% SeaBlock, 0.17×PBS, 0.05% Tween 20, 6 mM DTT). Test compounds were prepared as 111× stocks in 100% DMSO. Kd values were determined using an 11-point 3-fold compound dilution series with three DMSO control points. All compounds for Kd measurements are distributed by acoustic transfer (non-contact dispensing) in 100% DMSO. The compounds were then diluted directly into the assays such that the final concentration of DMSO was 0.9%. All reactions performed in polypropylene 384-well plate. Each was a final volume of 0.02 mL. The assay plates were incubated at room temperature with shaking for 1 hour and the affinity beads were washed with wash buffer (lx PBS, 0.05% Tween 20). The beads were then re-suspended in elution buffer (lx PBS, 0.05% Tween 20, 0.5 μM nonbiotinylated affinity ligand) and incubated at room temperature with shaking for 30 minutes. The kinase concentration in the eluates was measured by qPCR.

Row | SMILES | GI50 [1] [nM] | GI50 [2] [nM] | GI50 [3] [nM] | GI50 [4] [nM] | Kd (androgen receptor) [nM] | GI50 (VCaP cells) [nM] | Kd (CDK9) [nM]
1 | CCc1cnn2c(NCc3ccc(OCCOCCOCCN(C)c4ncc(C(=O)N[C@H]5C(C)(C)[C@H](Oc6ccc(C#N)c(Cl)c6)C5(C)C)cn4)nc3)cc(N3CCCC[C@H]3CCO)nc12 [Compound I-2, N-((1r,3r)-3-(3-chloro-4-cyanophenoxy)-2,2,4,4-tetra-methylcyclobutyl)-2-((2-(2-(2-((5-(((3-ethyl-5-((S)-2-(2-hydroxyethyl)piperidin-1-yl)pyrazolo[1,5-a]pyrimidin-7-yl)amino)methyl)pyridin-2-yl)oxy)ethoxy)ethoxy)ethyl)(methyl)amino)pyrimidine-5-carboxamide] | < 500 | 100 to 1000 | 100 to 1000 | < 500 |  |  | 
2 | CCc1cnn2c(NCc3ccc(OCCCN4CCN(CCCN(C)c5ncc(C(=O)N[C@H]6C(C)(C)[C@H](Oc7ccc(C#N)c(Cl)c7)C6(C)C)cn5)CC4)nc3)cc(N3CCCC[C@H]3CCO)nc12 [Compound I-6, N-((1r,3r)-3-(3-chloro-4-cyanophenoxy)-2,2,4,4-tetramethylcyclobutyl)-2-((3-(4-(3-((5-(((3-ethyl-5-((S)-2-(2-hydroxyethyl)piperidin-1-yl)pyrazolo[1,5-a]pyrimidin-7-yl)amino)methyl)pyridin-2-yl)oxy)propyl)piperazin-1-yl)propyl)(methyl)amino)pyrimidine-5-carboxamide] |  | < 100 | 100 to 1000 |  | < 50 |  | 
3 | CCc1cnn2c(NCc3ccc(OCCCN4CCN(CCCOC5CCN(c6ncc(C(=O)N[C@H]7C(C)(C)[C@H](Oc8ccc(C#N)c(Cl)c8)C7(C)C)cn6)CC5)CC4)nc3)cc(N3CCCC[C@H]3CCO)nc12 [Compound I-11] |  | < 100 | 100 to 1000 |  | < 50 | < 100 | 
4 | CCc1cnn2c(N(C)Cc3ccc(OCCOCCOCCOCCOCCN(C)c4ncc(C(=O)N[C@H]5C(C)(C)[C@H](Oc6ccc(C#N)c(Cl)c6)C5(C)C)cn4)nc3)cc(N3CCCC[C@H]3CCO)nc12 [Compound I-12] |  | > 3500 | > 3500 |  | < 50 |  | > 2500
5 | CCc1cnn2c(N(C)Cc3ccc(OCCOCCOCCOC4CCN(c5ncc(C(=O)N[C@H]6C(C)(C)[C@H](Oc7ccc(C#N)c(Cl)c7)C6(C)C)cn5)CC4)nc3)cc(N3CCCC[C@H]3CCO)nc12 [Compound I-25] |  | > 3500 | > 3500 |  | < 50 |  | > 2500
6 | CCc1cnn2c(NCc3ccc(OCCCCCCCCOC4CCN(c5ncc(C(=O)N[C@H]6C(C)(C)[C@H](Oc7ccc(C#N)c(Cl)c7)C6(C)C)cn5)CC4)nc3)cc(N3CCCC[C@H]3CCO)nc12 [Compound I-31] |  | > 3500 | > 3500 |  | > 2500 |  | > 2500
7 | CCc1cnn2c(NCc3ccc(OCCCN4CCN(CC5CCN(c6cnc(C(=O)N[C@H]7C(C)(C)[C@H](Oc8ccc(C#N)c(Cl)c8)C7(C)C)nc6)CC5)CC4)nc3)cc(N3CCCC[C@@H]3CCO)nc12 [Compound I-58, N-((1r,3r)-3-(3-chloro-4-cyanophenoxy)-2,2,4,4-tetramethylcyclobutyl)-5-(4-((4-(3-((5-(((3-ethyl-5-((R)-2-(2-hydroxyethyl)piperidin-1-yl)pyrazolo[1,5-a]pyrimidin-7-yl)amino)methyl)pyridin-2-yl)oxy)propyl)piperazin-1-yl)methyl)piperidin-1-yl)pyrimidine-2-carboxamide] |  | 100 to 1000 | < 100 |  | 500 to 2500 | 100 to 1000 | 
8 | CCc1cnn2c(NCc3ccc(OCCOCCN(C)C45CC(N(C)c6ncc(C(=O)N[C@H]7C(C)(C)[C@H](Oc8ccc(C#N)c(Cl)c8)C7(C)C)cn6)(C4)C5)nc3)cc(N3CCCC[C@H]3CCO)nc12 [Compound I-83] |  | < 100 | < 100 |  | < 50 | 100 to 1000 | 
